From article PMC9186362, “Design and biological evaluation of substituted 5,7-dihydro-6H-indolo[2,3-c]quinolin-6-one as novel selective Haspin inhibitors” (Journal of Enzyme Inhibition and Medicinal Chemistry, 2022)

Columns and labels:
Test in all cases: SelectScreen ZLYTE
Assay type in all cases: biochemical
[1] = target: ABL1 F317I (Homo sapiens, UniProt P00519, F317I); details: ATP Km, read-out: Percentage of inhibition
How it was run: (§1)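 Here 1 μM of inhibitor is profiled against a large kinase collection, and the extent of enzyme inhibition is stated as a percentage.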

[2] = target: T1, ABL2 (Arg) (Homo sapiens, UniProt P42684); details: ATP Km, read-out: Percentage of inhibition
T1 construct: purchased Life Technologies (SelectScreen service)
How it was run: as §1

[3] = target: AKT2 (PKB beta) (Homo sapiens, UniProt P31751); details: ATP Km, read-out: Percentage of inhibition
How it was run: as §1

[4] = target: AMPK (A2/B2/G3) (Homo sapiens, UniProt P54646); details: ATP Km, read-out: Percentage of inhibition
How it was run: as §1

[5] = target: T2, CSNK1E (CK1 epsilon) (Homo sapiens, UniProt P49674); details: ATP Km, read-out: Percentage of inhibition
T2 construct: purchased Life Technologies (SelectScreen service)
How it was run: as §1

[6] = target: CSNK2A1 (CK2 alpha 1) (Homo sapiens, UniProt P68400); details: ATP Km, read-out: Percentage of inhibition
How it was run: as §1

[7] = target: T3, DAPK3 (ZIPK) (Homo sapiens, UniProt O43293); details: ATP Km, read-out: Percentage of inhibition
T3 construct: purchased Life Technologies (SelectScreen Whole Panel service)
How it was run: as §1

[8] = target: DCAMKL2 (DCK2) (Homo sapiens, UniProt Q8N568); details: ATP Km, read-out: Percentage of inhibition
How it was run: as §1

[9] = target: EGFR (ErbB1) T790M C797S L858R (Homo sapiens, UniProt P00533, C797S/L858R/T790M); details: ATP Km, read-out: Percentage of inhibition
How it was run: as §1

[10] = target: T4, EPHB1 (Homo sapiens, UniProt P54762); details: ATP Km, read-out: Percentage of inhibition
T4 construct: purchased Life Technologies (SelectScreen Whole Panel)
How it was run: as §1

[11] = target: T5, FGFR1 (Homo sapiens, UniProt P11362); details: ATP Km, read-out: Percentage of inhibition
T5 construct: purchased Life Technologies
How it was run: as §1

[12] = target: FGFR4 (Homo sapiens, UniProt P22455); details: ATP Km, read-out: Percentage of inhibition
How it was run: as §1

[13] = target: T6, FLT4 (VEGFR3) (Homo sapiens, UniProt P35916); details: ATP Km, read-out: Percentage of inhibition
T6 construct: purchased Life Technologies (SelectScreen service)
How it was run: as §1

[14] = target: T7, GSK3A (GSK3 alpha) (Homo sapiens, UniProt P49840); details: ATP Km, read-out: Percentage of inhibition
T7 construct: purchased Life Technologies (SelectScreen service)
How it was run: as §1

[15] = target: T8, JAK1 (Homo sapiens, UniProt P23458); details: ATP Km, read-out: Percentage of inhibition
T8 construct: purchased Life Technologies (SelectScreen service)
How it was run: as §1

[16] = target: T9, JAK2 JH1 JH2 (Homo sapiens, UniProt O60674); details: ATP Km, read-out: Percentage of inhibition
T9 construct: JAK2 JH1 JH2; purchased Life Technologies
How it was run: as §1

[17] = target: T10, JAK3 (Homo sapiens, UniProt P52333); details: ATP Km, read-out: Percentage of inhibition
T10 construct: purchased Life Technologies (SelectScreen service)
How it was run: as §1

[18] = target: LCK (Homo sapiens, UniProt P06239); details: ATP Km, read-out: Percentage of inhibition
How it was run: as §1

[19] = target: T11, MAP2K6 (MKK6) (Homo sapiens, UniProt P52564); details: ATP 100 µM, read-out: Percentage of inhibition
T11 construct: purchased Life Technologies (SelectScreen Whole Panel service)
How it was run: as §1

[20] = target: T12, MAPK14 (p38 alpha) (Homo sapiens, UniProt Q16539); details: ATP 100 µM, read-out: Percentage of inhibition
T12 construct: purchased Life Technologies (SelectScreen Whole Panel service)
How it was run: as §1

[21] = target: MAPKAPK5 (PRAK) (Homo sapiens, UniProt Q8IW41); details: ATP Km, read-out: Percentage of inhibition
How it was run: as §1

[22] = target: MINK1 (Homo sapiens, UniProt Q8N4C8); details: ATP Km, read-out: Percentage of inhibition
How it was run: as §1

[23] = target: MST4 (Homo sapiens, UniProt Q9P289); details: ATP Km, read-out: Percentage of inhibition
How it was run: as §1

[24] = target: PAK1 (Homo sapiens, UniProt Q13153); details: ATP Km, read-out: Percentage of inhibition
How it was run: as §1

[25] = target: T13, PAK6 (Homo sapiens, UniProt Q9NQU5); details: ATP Km, read-out: Percentage of inhibition
T13 construct: purchased Life Technologies
How it was run: as §1

[26] = target: T14, PHKG2 (Homo sapiens, UniProt P15735); details: ATP Km, read-out: Percentage of inhibition
T14 construct: purchased Life Technologies (SelectScreen)
How it was run: as §1

[27] = target: T15, PIM1 (Homo sapiens, UniProt P11309); details: ATP Km, read-out: Percentage of inhibition
T15 construct: purchased Life Technologies (SelectScreen service)
How it was run: as §1

[28] = target: T16, PRKACA (PKA) (Homo sapiens, UniProt P17612); details: ATP Km, read-out: Percentage of inhibition
T16 construct: purchased Life Technologies (SelectScreen)
How it was run: as §1

[29] = target: PRKCI (PKC iota) (Homo sapiens, UniProt P41743); details: ATP Km, read-out: Percentage of inhibition
How it was run: as §1

[30] = target: T17, PRKCN (PKD3) (Homo sapiens, UniProt O94806); details: ATP Km, read-out: Percentage of inhibition
T17 construct: purchased Life Technologies
How it was run: as §1

[31] = target: T18, PRKD2 (PKD2) (Homo sapiens, UniProt Q9BZL6); details: ATP Km, read-out: Percentage of inhibition
T18 construct: purchased Life Technologies
How it was run: as §1

[32] = target: PRKX (Homo sapiens, UniProt P51817); details: ATP Km, read-out: Percentage of inhibition
How it was run: as §1

[33] = target: T19, RET (Homo sapiens, UniProt P07949); details: ATP Km, read-out: Percentage of inhibition
T19 construct: purchased Life Technologies
How it was run: as §1

[34] = target: T20, ROS1 (Homo sapiens, UniProt P08922); details: ATP Km, read-out: Percentage of inhibition
T20 construct: purchased Life Technologies
How it was run: as §1

[35] = target: T21, RPS6KA5 (MSK1) (Homo sapiens, UniProt O75582); details: ATP Km, read-out: Percentage of inhibition
T21 construct: purchased Life Technologies
How it was run: as §1

[36] = target: SRPK1 (Homo sapiens, UniProt Q96SB4); details: ATP Km, read-out: Percentage of inhibition
How it was run: as §1

[37] = target: T22, STK22D (TSSK1) (Homo sapiens, UniProt Q9BXA7); details: ATP Km, read-out: Percentage of inhibition
T22 construct: purchased Life Technologies (SelectScreen Whole Panel service)
How it was run: as §1

[38] = target: YES1 (Homo sapiens, UniProt P07947); details: ATP Km, read-out: Percentage of inhibition
How it was run: as §1

T14 sequence (P15735 whole entry): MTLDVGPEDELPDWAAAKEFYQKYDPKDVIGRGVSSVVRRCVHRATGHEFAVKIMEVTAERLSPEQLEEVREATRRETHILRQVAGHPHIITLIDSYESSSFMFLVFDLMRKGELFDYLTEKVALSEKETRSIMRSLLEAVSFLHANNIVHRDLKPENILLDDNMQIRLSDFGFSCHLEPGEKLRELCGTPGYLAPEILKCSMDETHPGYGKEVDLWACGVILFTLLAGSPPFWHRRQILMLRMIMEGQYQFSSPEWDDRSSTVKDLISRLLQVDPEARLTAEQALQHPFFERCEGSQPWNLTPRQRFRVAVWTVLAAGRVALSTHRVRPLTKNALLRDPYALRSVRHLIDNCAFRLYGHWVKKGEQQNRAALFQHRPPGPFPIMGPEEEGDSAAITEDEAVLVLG
T10 sequence (P52333 whole entry): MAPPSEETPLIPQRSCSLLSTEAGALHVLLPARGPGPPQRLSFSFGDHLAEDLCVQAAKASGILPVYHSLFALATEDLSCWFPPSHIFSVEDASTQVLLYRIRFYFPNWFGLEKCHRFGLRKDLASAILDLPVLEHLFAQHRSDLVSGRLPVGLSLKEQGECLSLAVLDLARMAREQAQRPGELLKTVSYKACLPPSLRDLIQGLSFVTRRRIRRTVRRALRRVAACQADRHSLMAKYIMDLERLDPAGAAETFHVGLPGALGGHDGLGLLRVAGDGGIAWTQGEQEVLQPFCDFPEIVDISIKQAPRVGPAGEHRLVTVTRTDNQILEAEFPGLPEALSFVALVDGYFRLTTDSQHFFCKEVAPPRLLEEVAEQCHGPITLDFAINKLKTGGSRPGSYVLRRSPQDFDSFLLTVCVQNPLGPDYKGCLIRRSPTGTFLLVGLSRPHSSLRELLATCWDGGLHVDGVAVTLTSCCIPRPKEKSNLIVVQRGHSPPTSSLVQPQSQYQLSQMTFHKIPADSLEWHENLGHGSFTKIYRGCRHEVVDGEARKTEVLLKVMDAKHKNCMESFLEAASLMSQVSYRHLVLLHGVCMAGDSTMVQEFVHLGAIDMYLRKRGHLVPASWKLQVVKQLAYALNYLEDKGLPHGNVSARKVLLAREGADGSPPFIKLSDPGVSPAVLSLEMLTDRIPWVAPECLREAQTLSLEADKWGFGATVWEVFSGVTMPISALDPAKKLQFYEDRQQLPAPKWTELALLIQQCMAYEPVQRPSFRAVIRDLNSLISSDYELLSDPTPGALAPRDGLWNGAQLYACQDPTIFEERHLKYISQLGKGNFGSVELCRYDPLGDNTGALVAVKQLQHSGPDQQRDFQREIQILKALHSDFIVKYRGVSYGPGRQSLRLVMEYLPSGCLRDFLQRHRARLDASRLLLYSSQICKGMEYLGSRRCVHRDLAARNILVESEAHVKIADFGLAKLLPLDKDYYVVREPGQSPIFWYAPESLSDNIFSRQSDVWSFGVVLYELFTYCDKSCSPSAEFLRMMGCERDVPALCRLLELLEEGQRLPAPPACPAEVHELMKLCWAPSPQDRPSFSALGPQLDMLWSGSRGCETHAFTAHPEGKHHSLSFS
T7 sequence (P49840 whole entry): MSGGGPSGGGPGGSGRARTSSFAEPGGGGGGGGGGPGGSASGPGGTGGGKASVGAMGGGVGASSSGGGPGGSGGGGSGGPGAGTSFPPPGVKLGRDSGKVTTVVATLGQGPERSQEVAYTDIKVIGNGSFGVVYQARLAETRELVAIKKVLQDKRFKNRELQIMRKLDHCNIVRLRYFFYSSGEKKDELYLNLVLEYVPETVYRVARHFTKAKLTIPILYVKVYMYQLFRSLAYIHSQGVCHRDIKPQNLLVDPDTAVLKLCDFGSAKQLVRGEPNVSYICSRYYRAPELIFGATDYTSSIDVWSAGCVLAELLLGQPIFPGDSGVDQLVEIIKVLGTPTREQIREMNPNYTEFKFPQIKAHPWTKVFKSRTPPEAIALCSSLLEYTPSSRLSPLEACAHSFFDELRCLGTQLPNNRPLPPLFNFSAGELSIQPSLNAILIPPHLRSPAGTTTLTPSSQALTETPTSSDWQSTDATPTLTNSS
Chain of AMPK (A2/B2/G3) (P54646 whole entry): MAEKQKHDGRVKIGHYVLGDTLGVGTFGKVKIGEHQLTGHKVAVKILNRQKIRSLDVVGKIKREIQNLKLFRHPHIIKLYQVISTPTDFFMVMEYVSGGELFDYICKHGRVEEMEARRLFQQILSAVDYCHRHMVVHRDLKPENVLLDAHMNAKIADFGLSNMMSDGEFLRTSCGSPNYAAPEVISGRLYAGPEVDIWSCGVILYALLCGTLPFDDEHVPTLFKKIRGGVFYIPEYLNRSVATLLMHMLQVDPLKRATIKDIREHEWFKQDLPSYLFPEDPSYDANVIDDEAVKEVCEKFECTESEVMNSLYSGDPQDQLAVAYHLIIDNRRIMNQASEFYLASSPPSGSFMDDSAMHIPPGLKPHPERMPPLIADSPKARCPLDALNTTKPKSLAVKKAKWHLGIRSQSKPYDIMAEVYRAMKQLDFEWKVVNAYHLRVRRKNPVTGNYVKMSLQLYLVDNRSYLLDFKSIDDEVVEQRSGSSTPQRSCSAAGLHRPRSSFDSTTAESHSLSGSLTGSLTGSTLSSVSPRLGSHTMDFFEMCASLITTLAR
Chain of AMPK (A2/B2/G3) (O43741 whole entry partner): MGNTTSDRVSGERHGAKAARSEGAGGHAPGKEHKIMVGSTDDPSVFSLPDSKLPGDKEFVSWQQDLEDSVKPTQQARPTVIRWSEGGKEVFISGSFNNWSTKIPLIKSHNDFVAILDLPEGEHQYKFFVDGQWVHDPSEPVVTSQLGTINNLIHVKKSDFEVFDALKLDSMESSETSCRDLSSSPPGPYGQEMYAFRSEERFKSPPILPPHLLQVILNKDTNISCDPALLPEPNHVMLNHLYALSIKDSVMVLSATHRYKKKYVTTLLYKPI
Chain of AMPK (A2/B2/G3) (Q9UGI9 whole entry partner): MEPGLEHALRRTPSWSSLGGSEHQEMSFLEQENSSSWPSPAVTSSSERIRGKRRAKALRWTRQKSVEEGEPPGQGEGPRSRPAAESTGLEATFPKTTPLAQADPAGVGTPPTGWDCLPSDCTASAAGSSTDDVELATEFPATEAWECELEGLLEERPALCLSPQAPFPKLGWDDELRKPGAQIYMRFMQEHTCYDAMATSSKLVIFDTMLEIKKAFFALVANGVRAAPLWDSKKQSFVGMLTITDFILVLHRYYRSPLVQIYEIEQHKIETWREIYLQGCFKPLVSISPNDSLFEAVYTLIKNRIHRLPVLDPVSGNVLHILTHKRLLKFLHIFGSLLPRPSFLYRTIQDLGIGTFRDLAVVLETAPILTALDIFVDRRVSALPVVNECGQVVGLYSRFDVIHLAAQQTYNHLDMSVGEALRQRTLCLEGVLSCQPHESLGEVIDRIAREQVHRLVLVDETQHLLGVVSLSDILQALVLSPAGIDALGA
Chain of PRKX (P51817 whole entry): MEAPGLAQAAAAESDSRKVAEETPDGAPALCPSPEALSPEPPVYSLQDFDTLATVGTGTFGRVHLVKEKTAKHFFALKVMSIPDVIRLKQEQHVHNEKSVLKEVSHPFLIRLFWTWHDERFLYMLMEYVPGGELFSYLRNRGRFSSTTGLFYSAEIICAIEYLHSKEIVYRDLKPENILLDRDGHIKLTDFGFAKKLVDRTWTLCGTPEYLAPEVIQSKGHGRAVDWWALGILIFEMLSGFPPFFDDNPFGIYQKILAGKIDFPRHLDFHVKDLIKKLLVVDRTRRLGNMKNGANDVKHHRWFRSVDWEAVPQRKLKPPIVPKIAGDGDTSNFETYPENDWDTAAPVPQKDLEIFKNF
T6 sequence (P35916 25-1363): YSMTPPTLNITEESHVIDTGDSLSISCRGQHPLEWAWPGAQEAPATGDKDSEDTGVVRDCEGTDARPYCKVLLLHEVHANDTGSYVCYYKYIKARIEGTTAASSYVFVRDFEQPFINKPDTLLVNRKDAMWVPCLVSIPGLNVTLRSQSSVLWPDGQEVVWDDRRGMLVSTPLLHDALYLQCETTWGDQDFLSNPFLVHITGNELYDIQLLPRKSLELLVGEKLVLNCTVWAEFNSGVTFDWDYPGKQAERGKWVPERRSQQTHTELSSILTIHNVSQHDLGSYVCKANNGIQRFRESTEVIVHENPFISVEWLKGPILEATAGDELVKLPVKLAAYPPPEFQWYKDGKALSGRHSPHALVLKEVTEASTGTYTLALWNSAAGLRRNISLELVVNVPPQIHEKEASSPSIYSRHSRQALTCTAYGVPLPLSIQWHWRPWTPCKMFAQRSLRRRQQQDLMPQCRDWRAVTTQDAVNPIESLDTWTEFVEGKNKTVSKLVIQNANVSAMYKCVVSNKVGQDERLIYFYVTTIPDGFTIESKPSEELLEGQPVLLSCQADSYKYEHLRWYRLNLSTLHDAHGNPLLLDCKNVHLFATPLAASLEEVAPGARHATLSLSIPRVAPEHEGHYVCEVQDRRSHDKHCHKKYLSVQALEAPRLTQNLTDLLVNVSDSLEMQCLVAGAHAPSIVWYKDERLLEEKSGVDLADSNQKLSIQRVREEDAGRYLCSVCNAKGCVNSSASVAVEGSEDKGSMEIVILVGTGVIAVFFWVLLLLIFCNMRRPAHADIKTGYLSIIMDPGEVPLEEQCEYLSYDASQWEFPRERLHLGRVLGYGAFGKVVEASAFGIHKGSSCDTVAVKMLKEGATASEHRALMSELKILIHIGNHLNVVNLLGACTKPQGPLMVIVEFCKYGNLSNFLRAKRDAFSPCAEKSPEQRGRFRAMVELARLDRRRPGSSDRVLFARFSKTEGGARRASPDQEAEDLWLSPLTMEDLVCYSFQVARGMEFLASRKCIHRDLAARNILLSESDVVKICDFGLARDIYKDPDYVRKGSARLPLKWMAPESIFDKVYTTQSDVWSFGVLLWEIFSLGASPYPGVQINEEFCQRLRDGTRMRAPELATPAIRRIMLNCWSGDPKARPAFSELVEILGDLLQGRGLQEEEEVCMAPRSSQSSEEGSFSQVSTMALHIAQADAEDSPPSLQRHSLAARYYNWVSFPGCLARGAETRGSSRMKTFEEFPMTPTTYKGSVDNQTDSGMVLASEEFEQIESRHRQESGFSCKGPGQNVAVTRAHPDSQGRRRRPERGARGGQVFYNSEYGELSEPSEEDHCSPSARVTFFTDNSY

SMILES: COc1ccc2[nH]c3c(=O)[nH]c4ccc(O)cc4c3c2c1 [Compound 55, 2-Hydroxy-10-methoxy-5,7-dihydro-6H-indolo[2,3-c]quinolin-6-one]
- inhibition at 1 µM [1]: 14%
- inhibition at 1 µM [2]: 24%
- inhibition at 1 µM [3]: 6%
- inhibition at 1 µM [4]: 57%
- inhibition at 1 µM [5]: 73%
- inhibition at 1 µM [6]: 14%
- inhibition at 1 µM [7]: 44%
- inhibition at 1 µM [8]: 6%
- inhibition at 1 µM [9]: 13%
- inhibition at 1 µM [10]: 49%
- inhibition at 1 µM [11]: 38%
- inhibition at 1 µM [12]: 22%
- inhibition at 1 µM [13]: 72%
- inhibition at 1 µM [14]: 82%
- inhibition at 1 µM [15]: 23%
- inhibition at 1 µM [16]: 33%
- inhibition at 1 µM [17]: 79%
- inhibition at 1 µM [18]: 67%
- inhibition at 1 µM [19]: 11%
- inhibition at 1 µM [20]: 12%
- inhibition at 1 µM [21]: 22%
- inhibition at 1 µM [22]: 66%
- inhibition at 1 µM [23]: 61%
- inhibition at 1 µM [24]: 6%
- inhibition at 1 µM [25]: 4%
- inhibition at 1 µM [26]: 8%
- inhibition at 1 µM [27]: 71%
- inhibition at 1 µM [28]: 8%
- inhibition at 1 µM [29]: 6%
- inhibition at 1 µM [30]: 40%
- inhibition at 1 µM [31]: 39%
- inhibition at 1 µM [32]: 7%
- inhibition at 1 µM [33]: 97%
- inhibition at 1 µM [34]: 29%
- inhibition at 1 µM [35]: 28%
- inhibition at 1 µM [36]: 7%
- inhibition at 1 µM [37]: 19%
- inhibition at 1 µM [38]: 61%
